The source of these data is patent US9447028B2, “Therapeutic aryl-amido-aryl compounds and their use” (King's College London, priority 2009, dated 2016).

Some results are limits rather than exact numbers.

What all share (type): cell-based
The target of one test is T1, RARα (Homo sapiens, UniProt P10276).
T1 construct: gal4 (fusion partner); expressed in transfected cells; host or cells: COS-7
T1 sequence (P10276 183-417 limits assumed): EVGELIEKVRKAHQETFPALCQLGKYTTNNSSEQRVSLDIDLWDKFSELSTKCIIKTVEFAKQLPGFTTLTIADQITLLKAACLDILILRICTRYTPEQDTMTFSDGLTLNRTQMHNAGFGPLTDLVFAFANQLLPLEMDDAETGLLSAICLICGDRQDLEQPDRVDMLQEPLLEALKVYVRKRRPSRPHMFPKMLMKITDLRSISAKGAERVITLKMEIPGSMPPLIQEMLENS
As to the kind of experiment: Transactivation assay for RAR alpha (gal4-RAR fusion, luciferase reporter, COS-7 cells). Conditions: for RARα/RARβ ratio (*): fold-selectivity for RARα over RARβ; for RARα activity ratio: ratio of test compound EC50 to that of atRA on the same plate. The method, boiled down:
(§1)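 COS-7 cells co-transfected with gal4–RAR ligand-binding-domain fusion and pFR-luc reporter, then treated with compound in phenol-red-free DMEM (1% DMSO) for about one day. Luciferase read after lysis with BrightGlo; EC50 values from replicate experiments given as a ratio of means.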

A further test has as its target T2, RARβ (Homo sapiens, UniProt P10826).
T2 construct: gal4 (fusion partner); expressed in transfected cells; host or cells: COS-7
T2 sequence (P10826 183-417 limits assumed): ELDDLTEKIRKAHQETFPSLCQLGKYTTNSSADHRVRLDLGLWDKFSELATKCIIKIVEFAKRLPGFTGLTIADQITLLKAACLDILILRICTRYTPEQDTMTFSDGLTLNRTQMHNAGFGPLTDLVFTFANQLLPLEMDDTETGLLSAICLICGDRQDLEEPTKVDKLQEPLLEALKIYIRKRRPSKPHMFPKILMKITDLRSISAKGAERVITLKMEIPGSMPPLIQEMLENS
As to the kind of experiment: Transactivation assay for RAR beta (gal4-RAR fusion, luciferase reporter, COS-7 cells). Conditions: ratio of test compound EC50 to that of atRA; inactive = no agonist action at the highest concentration tested. The method, boiled down:
as §1

The target of the next test is T3, RARγ (Homo sapiens, UniProt P13631).
T3 construct: gal4 (fusion partner); expressed in transfected cells; host or cells: COS-7
T3 sequence (P13631 185-419 limits assumed): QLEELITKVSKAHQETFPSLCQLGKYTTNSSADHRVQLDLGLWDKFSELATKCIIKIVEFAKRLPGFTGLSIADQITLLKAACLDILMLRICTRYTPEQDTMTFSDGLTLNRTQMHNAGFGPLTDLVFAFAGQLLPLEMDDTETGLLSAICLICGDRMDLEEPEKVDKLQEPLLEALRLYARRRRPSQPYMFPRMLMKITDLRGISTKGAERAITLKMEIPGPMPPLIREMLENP
As to the kind of experiment: Transactivation assay for RAR gamma (gal4-RAR fusion, luciferase reporter, COS-7 cells). As to conditions: ratio of test compound EC50 to that of atRA; inactive = no agonist action at the highest concentration tested. The method, boiled down:
as §1

With `CCOc1c(Cl)cc(C(=O)Nc2ccc(C(=O)O)cc2)cc1OCC1CC1` [AAA-089, 4-(3-Chloro-5-(cyclopropylmethoxy)-4-ethoxybenzamido)benzoic acid], on RARα, the “RARα/RARβ ratio (*)” value stood at 392 and the RARα activity ratio is listed as 1.3. In addition, the RARβ activity ratio at RARβ is 510. The RARγ activity ratio at RARγ is given as 2647.
For `COc1c(Cl)cc(C(=O)Nc2ccc(C(=O)O)cc2)cc1Cl` [AAA-030, 4-(3,5-Dichloro-4-methoxy-benzoylamino)-benzoic acid], at RARα (compared with XXX-03), the “Improvement (RARα activity ratio)” value is ~3.1-fold and the “Improvement (RARα/RARβ ratio)” value is on record as ~46-fold. For the same molecule, the RARβ activity ratio at RARβ was found to be 9525. Also, the RARγ activity ratio at RARγ is given as 5850.
With `CC(C)Oc1c(Cl)cc(C(=O)Nc2ccc(C(=O)O)cc2)cc1C(F)(F)F` [AAA-034, 4-(3-Chloro-4-isopropoxy-5-(trifluoromethyl)benzamido)benzoic acid], on RARα, the “RARα/RARβ ratio (*)” value is recorded as 122 and the RARα activity ratio turned out to be 2. The RARβ activity ratio on RARβ is reported as 244. In addition, on RARγ, the RARγ activity ratio was 1250.
For `O=C(O)c1ccc(NC(=O)c2cc(Cl)c(OCc3ccncc3)c(Cl)c2)cc1` [AAA-012, 4-(3,5-Dichloro-4-(pyridin-4-ylmethoxy)benzamido)benzoic acid], on RARα, the “RARα/RARβ ratio (*)” value stood at 2.4 and the RARα activity ratio was determined as 533. The RARβ activity ratio at RARβ is recorded as 1300. The RARγ activity ratio result at RARγ was “inactive”.
On to `CC(C)Oc1cc(C(=O)Nc2ccc(C(=O)O)c(O)c2)cc(Cl)c1OC(C)C` [AAA-091, 4-(3-Chloro-4,5-diisopropoxybenzamido)-2-hydroxybenzoic acid], for which, on RARα, the “RARα/RARβ ratio (*)” value came to 135 and the RARα activity ratio came out at 1.6. At RARβ, the RARβ activity ratio is 216. Besides, on RARγ, the RARγ activity ratio is 75000.
Taken in the same sequence, the figures for `CCOc1c(Cl)cc(C(=O)Nc2ccc(C(=O)O)c(C)c2)cc1C(F)(F)F` [AAA-039, 4-(3-Chloro-4-ethoxy-5-(trifluoromethyl)benzamido)-2-methylbenzoic acid] were 59, 3.0, 177 and 2985.
The like results for `Cc1cc(NC(=O)c2cc(Cl)c(OC(C)(C)C)c(C(F)(F)F)c2)ccc1C(=O)O` [AAA-038, 4-(4-(tert-Butoxy)-3-chloro-5-(trifluoromethyl)benzamido)-2-methylbenzoic acid] were, in that order, 98, 0.50, 49 and 0.36.
The like results for `CCOc1c(Br)cc(C(=O)Nc2ccc(C(=O)O)c(C)c2)cc1Br` [AAA-053, 4-(3,5-Dibromo-4-ethoxybenzamido)-2-methylbenzoic acid] were, in that order, 336, 4.2, 1410 and 414.
As to `CCOc1c(Cl)cc(C(=O)Nc2ccc(C(=O)O)c(O)c2)cc1OCC1CC1` [AAA-090, 4-(3-Chloro-5-(cyclopropylmethoxy)-4-ethoxybenzamido)-2-hydroxybenzoic acid], on RARα, the “RARα/RARβ ratio (*)” value was 250 and the RARα activity ratio is 5.0. In addition, on RARβ, the RARβ activity ratio came to 1250. For the same molecule, at RARγ, the RARγ activity ratio was found to be 367000.
Consider `CCC(CC)Oc1cc(C(=O)Nc2ccc(C(=O)O)cc2)cc(Cl)c1OC` [AAA-101, 4-(3-Chloro-4-methoxy-5-(pentan-3-yloxy)benzamido)benzoic acid], for which, on RARα, the “RARα/RARβ ratio (*)” value is listed as 23 and the RARα activity ratio was 1.7. Besides, the RARβ activity ratio on RARβ came to 39. On RARγ, the RARγ activity ratio is 375.
As to `CCOc1c(Cl)cc(C(=O)Nc2ccc(C(=O)O)c(O)c2)cc1OC(C)C` [AAA-081, 4-(3-Chloro-4-ethoxy-5-isopropoxybenzamido)-2-hydroxybenzoic acid], at RARα, the “RARα/RARβ ratio (*)” value is recorded as 161 and the RARα activity ratio was determined as 9.0. Moreover, the RARβ activity ratio at RARβ is given as 1453. Moreover, the RARγ activity ratio at RARγ is on record as above 27000.
Taken in the same sequence, the figures for `CCOc1cc(C(=O)Nc2ccc(C(=O)O)c(F)c2)cc(OC(CC)CC)c1Cl` [AAA-116, 4-(4-Chloro-3-ethoxy-5-(pentan-3-yloxy)benzamido)-2-fluorobenzoic acid] were 46, 4.5, 208 and 55172.
Take `CCOc1c(Cl)cc(C(=O)Nc2ccc(C(=O)O)c(C)c2)cc1OCC1CC1` [AAA-097, 4-(3-Chloro-5-(cyclopropylmethoxy)-4-ethoxybenzamido)-2-methylbenzoic acid]: on RARα, the “RARα/RARβ ratio (*)” value was 58 and the RARα activity ratio came out at 2.6. In addition, on RARβ, the RARβ activity ratio is reported as 151. Also, on RARγ, the RARγ activity ratio is listed as 100000.
Regarding `COc1c(Cl)cc(C(=O)Nc2ccc(C(=O)O)c(C)c2)cc1Cl` [AAA-055, 4-(3,5-Dichloro-4-methoxybenzamido)-2-methylbenzoic acid], at RARα, the “RARα/RARβ ratio (*)” value was found to be 107 and the RARα activity ratio came to 18. Moreover, the RARβ activity ratio at RARβ is given as 1926. Also, the RARγ activity ratio on RARγ is 69000.
For `CCOc1cc(C(=O)Nc2ccc(C(=O)O)c(C)c2)cc(Cl)c1OC(C)C` [AAA-087, 4-(3-Chloro-5-ethoxy-4-isopropoxybenzamido)-2-methylbenzoic acid], at RARα, the “RARα/RARβ ratio (*)” value came out at 286 and the RARα activity ratio was 7. Also, the RARβ activity ratio at RARβ was 2000. Also, on RARγ, the RARγ activity ratio turned out to be 11725.
The like results for `Cc1cc(NC(=O)c2cc(F)c(OC(C)C)c(Cl)c2)ccc1C(=O)O` [AAA-074, 4-(3-Chloro-5-fluoro-4-isopropoxybenzamido)-2-methylbenzoic acid] were, in that order, 210, 154, 32400 and 14500.
Regarding `COc1c(OC(C)C)cc(C(=O)Nc2ccc(C(=O)O)cc2)cc1OC(C)C` [AAA-062, 4-(3,5-Diisopropoxy-4-methoxybenzamido)benzoic acid], on RARα, the “RARα/RARβ ratio (*)” value turned out to be 8 and the RARα activity ratio worked out at 85. Further, on RARβ, the RARβ activity ratio worked out at 714. The RARγ activity ratio on RARγ turned out to be 5328.
The like results for `COc1c(Cl)cc(C(=O)Nc2ccc(C(=O)O)c(O)c2)cc1C(F)(F)F` [AAA-070, 4-(3-Chloro-4-methoxy-5-(trifluoromethyl)benzamido)-2-hydroxybenzoic acid] were, in that order, 701, 3.4, 2386 and above 62500.
Taken in the same sequence, the figures for `CCOc1c(Cl)cc(C(=O)Nc2ccc(C(=O)O)cc2)cc1OC` [AAA-084, 4-(3-Chloro-4-ethoxy-5-methoxybenzamido)benzoic acid] were 234, 26, 6087 and above 1400.
